Columns and labels:
RIPK4 = RIPK4 (Homo sapiens, UniProt P57078); experiment: KINOMEscan; details: read-out: Percent Control
Description: (§4) The kinase engagement assay (KINOMEscan®) was performed by DiscoverX assessing binding abilities toward a set of kinases.

JNK3 = JNK3 (Homo sapiens, UniProt P53779); experiment: KINOMEscan; details: read-out: Percent Control
Description: as §4

NEK11 = NEK11 (Homo sapiens, UniProt Q8NG66); experiment: KINOMEscan; details: read-out: Percent Control
Description: as §4

CSK = CSK (Homo sapiens, UniProt P41240); experiment: KINOMEscan; details: read-out: Percent Control
Description: as §4

PIK3CD = PIK3CD (Homo sapiens, UniProt O00329); experiment: KINOMEscan; details: read-out: Percent Control
Description: as §4

EGFR(T790M) = EGFR(T790M) (Homo sapiens, UniProt P00533, T790M); experiment: KINOMEscan; details: read-out: Percent Control
Description: as §4

MEK1 at S298 = experiment: MEK phosphorylation in OVCAR3 and MCF7 cells, immunoblot; assay type: cell-based; details: 10 nM, 24 hours
Description: (§1) FIG. 3A is a series of Western blots showing OVCAR3 and MCF7 cells that were treated for 24 hours with DMSO, 10 nM BJG-05-039, or NVS-PAK1-1 as indicated. MEK and ERK phosphorylation was assessed by immunoblot with the indicated phosphorylation-specific antibodies. FIG. 3B is a Western blot showing MCF7 cells that were stably transduced with a doxycycline-regulated shRNA against PAK1. shRNA expression was induced by the indicated amounts of doxycycline and immunoblots were performed using cell lysates 24 hours post doxycycline addition. FIG. 3C is a Western blot showing MCF7 cells that were treated with vehicle or […] doxycycline. Immunoblots were performed using cell lysates 24 hours post doxycycline addition.
(§2) Cells were washed once in PBS and lysed in RIPA buffer (50 mM Tris-HCl, 150 mM NaCl, 0.25% (w/v) sodium deoxycholate, 1% (w/v) NP-40, pH 7.5) containing protease inhibitor cocktail (Roche) and phosphatase inhibitor cocktail (Roche) for 30 minutes on ice. […]
(§3) In certain cell lines, PAK1 has well-characterized functions in regulating proliferative signaling. […] As a readout for anti-PAK activity, phosphorylation of MEK1 at S298 was assessed, a direct target site for Group A PAKs (Coles, et al. (2002) Oncogene 21:2236-2244; Slack-Davis, et al. (2003) J. Cell. Biol., 162:281-291), as well as phosphorylation of the downstream target of MEK, ERK. […]

TAOK1 = TAOK1 (Homo sapiens, UniProt Q7L7X3); experiment: KINOMEscan; details: read-out: Percent Control
Description: as §4

ERBB3 = ERBB3 (Homo sapiens, UniProt P21860); experiment: KINOMEscan; details: read-out: Percent Control
Description: as §4

FLT3(ITD) = experiment: KINOMEscan; details: 10 μM
Description: as §4

AURKB = AURKB (Homo sapiens, UniProt Q96GD4); experiment: KINOMEscan; details: read-out: Percent Control
Description: as §4

FES = FES (Homo sapiens, UniProt P07332); experiment: KINOMEscan; details: read-out: Percent Control
Description: as §4

CDK4-cyclinD3 = CDK4-cyclinD3 (Homo sapiens, UniProt P11802); experiment: KINOMEscan; details: read-out: Percent Control
Description: as §4

PAK1 = PAK1 (Homo sapiens, UniProt Q13153); experiment: KINOMEscan; details: read-out: Percent Control
Description: as §4

EPHA1 = EPHA1 (Homo sapiens, UniProt P21709); experiment: KINOMEscan; details: read-out: Percent Control
Description: as §4

PRKG2 = PRKG2 (Homo sapiens, UniProt Q13237); experiment: KINOMEscan; details: read-out: Percent Control
Description: as §4

PIK3CA(E545A) = PIK3CA(E545A) (Homo sapiens, UniProt P42336, E545A); experiment: KINOMEscan; details: read-out: Percent Control
Description: as §4

CSNK1D = CSNK1D (Homo sapiens, UniProt P48730); experiment: KINOMEscan; details: read-out: Percent Control
Description: as §4

[1] = target: ABL1(F317I)-nonphosphorylated (Homo sapiens, UniProt P00519, F317I); experiment: KINOMEscan; details: read-out: Percent Control
Description: as §4

[2] = target: ABL1(H396P)-phosphorylated (Homo sapiens, UniProt P00519, H396P); experiment: KINOMEscan; details: read-out: Percent Control
Description: as §4

CDKL5 = CDKL5 (Homo sapiens, UniProt O76039); experiment: KINOMEscan; details: read-out: Percent Control
Description: as §4

CDK8 = CDK8 (Homo sapiens, UniProt P49336); experiment: KINOMEscan; details: read-out: Percent Control
Description: as §4

HIPK4 = HIPK4 (Homo sapiens, UniProt Q8NE63); experiment: KINOMEscan; details: read-out: Percent Control
Description: as §4

p38-gamma = p38-gamma (Homo sapiens, UniProt P53778); experiment: KINOMEscan; details: read-out: Percent Control
Description: as §4

ERK = ERK phosphorylation in OVCAR3 and MCF7 cells, immunoblot; assay type: cell-based; details: 10 nM, 24 hours
Description: as §1, §2, §3

[3] = target: RSK3(Kin.Dom.1-N-terminal) (Homo sapiens, UniProt Q15349); experiment: KINOMEscan; details: read-out: Percent Control
Description: as §4

Chain of CDKL5 (O76039 whole entry): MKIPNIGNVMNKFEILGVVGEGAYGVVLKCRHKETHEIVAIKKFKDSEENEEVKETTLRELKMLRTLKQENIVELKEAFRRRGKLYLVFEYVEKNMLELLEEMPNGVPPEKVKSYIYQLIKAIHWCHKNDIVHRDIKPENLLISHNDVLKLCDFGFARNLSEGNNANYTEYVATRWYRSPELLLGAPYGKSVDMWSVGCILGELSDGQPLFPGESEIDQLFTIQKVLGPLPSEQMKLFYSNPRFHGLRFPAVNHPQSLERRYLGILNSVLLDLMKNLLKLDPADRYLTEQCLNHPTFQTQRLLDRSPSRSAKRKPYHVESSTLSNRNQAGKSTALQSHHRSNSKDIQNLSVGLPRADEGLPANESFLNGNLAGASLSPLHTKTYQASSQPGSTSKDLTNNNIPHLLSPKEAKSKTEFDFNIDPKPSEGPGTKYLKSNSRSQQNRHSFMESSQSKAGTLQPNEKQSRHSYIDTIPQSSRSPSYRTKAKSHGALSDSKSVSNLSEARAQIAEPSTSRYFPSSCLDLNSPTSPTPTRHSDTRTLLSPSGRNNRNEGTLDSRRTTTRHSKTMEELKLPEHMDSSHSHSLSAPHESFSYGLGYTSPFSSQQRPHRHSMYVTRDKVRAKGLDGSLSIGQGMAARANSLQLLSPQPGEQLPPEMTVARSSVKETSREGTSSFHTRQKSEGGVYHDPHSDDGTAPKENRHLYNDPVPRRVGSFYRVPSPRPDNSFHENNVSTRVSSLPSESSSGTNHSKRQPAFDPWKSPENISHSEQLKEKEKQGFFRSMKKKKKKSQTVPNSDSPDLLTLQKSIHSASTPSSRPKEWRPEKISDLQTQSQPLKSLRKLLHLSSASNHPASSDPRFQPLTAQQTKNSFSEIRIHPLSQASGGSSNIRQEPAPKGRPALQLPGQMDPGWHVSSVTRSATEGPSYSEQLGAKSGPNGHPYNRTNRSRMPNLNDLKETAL
Chain of PIK3CA(E545A) (P42336 whole entry E545A): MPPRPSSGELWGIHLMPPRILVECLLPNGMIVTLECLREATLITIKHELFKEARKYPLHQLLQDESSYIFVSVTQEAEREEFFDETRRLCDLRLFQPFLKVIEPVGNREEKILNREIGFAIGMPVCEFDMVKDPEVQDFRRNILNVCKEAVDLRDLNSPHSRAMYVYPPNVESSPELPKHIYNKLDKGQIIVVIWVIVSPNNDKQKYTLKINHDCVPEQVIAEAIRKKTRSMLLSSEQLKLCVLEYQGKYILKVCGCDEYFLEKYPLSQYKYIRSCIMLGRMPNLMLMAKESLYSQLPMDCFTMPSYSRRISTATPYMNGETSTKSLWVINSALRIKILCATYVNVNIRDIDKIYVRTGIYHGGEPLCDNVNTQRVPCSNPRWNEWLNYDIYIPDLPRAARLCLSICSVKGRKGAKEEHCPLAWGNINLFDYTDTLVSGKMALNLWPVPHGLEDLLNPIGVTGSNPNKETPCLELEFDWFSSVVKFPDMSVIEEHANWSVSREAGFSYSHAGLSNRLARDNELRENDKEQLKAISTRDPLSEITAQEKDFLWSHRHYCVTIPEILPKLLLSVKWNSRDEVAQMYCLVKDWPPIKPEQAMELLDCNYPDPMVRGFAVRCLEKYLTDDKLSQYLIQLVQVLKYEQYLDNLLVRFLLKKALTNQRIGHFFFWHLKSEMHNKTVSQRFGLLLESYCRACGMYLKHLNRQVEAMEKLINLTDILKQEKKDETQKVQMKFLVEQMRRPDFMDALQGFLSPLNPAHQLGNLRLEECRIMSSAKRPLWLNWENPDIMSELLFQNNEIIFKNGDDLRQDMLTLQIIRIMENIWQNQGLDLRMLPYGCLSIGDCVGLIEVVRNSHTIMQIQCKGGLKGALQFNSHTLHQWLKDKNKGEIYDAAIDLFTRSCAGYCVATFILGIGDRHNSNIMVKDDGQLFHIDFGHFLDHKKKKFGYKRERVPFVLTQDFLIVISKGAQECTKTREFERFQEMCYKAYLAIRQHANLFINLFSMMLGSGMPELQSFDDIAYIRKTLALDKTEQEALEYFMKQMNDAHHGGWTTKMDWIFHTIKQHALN
Chain of CDK4-cyclinD3 (P11802 whole entry): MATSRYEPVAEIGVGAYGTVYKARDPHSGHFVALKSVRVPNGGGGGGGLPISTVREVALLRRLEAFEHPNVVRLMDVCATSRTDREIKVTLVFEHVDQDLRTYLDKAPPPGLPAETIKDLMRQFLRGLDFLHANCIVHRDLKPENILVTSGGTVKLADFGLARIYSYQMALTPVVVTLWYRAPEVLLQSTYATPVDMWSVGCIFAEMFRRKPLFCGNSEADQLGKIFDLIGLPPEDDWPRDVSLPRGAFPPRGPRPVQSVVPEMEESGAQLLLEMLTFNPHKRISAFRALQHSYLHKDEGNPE
Chain of CDK4-cyclinD3 (P30281 whole entry partner): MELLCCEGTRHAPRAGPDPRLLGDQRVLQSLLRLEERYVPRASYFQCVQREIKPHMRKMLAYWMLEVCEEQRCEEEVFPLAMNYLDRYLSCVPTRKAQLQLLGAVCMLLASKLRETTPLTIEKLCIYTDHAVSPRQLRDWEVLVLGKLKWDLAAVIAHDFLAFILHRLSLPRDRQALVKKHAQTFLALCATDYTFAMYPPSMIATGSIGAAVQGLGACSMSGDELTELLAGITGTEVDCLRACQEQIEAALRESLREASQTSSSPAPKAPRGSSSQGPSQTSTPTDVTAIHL
Chain of RIPK4 (P57078 whole entry): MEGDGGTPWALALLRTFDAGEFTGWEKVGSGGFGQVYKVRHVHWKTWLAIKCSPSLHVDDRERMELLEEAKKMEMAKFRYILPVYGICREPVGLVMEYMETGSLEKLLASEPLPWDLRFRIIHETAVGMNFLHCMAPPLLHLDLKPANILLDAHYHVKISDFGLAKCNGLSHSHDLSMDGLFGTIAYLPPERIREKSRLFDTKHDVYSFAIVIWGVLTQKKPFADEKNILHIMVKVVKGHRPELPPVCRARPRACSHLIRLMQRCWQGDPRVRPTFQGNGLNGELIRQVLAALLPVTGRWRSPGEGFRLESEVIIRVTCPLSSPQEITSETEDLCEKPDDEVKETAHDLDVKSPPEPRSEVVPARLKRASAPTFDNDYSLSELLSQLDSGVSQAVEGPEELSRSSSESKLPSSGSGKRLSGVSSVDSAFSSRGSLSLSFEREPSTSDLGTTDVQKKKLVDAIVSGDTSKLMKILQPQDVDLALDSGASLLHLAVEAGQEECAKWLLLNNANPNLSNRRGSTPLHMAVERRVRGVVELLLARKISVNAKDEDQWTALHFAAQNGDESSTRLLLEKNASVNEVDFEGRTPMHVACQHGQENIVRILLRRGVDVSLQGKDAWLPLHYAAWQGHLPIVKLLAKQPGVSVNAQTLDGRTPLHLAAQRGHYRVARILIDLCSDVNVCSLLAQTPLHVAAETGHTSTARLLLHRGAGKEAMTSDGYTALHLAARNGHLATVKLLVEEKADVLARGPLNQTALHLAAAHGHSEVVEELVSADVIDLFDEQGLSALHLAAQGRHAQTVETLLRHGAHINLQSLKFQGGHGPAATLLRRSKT
Chain of NEK11 (Q8NG66 whole entry): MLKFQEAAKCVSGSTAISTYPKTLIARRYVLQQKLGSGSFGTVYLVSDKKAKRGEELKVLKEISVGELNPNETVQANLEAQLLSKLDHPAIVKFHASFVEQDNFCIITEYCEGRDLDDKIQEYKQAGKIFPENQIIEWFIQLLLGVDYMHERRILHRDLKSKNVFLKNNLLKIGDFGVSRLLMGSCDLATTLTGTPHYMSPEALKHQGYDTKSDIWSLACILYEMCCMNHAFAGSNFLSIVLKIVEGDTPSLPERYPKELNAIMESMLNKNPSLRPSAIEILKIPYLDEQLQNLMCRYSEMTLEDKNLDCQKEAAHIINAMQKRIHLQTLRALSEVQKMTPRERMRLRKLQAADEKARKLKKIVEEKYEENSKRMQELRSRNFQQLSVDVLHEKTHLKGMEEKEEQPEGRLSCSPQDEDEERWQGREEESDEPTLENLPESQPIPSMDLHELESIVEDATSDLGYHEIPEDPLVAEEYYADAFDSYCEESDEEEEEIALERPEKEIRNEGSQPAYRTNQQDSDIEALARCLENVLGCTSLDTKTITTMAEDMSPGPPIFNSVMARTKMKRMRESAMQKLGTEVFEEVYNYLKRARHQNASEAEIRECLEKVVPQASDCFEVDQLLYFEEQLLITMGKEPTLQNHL
Chain of AURKB (Q96GD4 whole entry): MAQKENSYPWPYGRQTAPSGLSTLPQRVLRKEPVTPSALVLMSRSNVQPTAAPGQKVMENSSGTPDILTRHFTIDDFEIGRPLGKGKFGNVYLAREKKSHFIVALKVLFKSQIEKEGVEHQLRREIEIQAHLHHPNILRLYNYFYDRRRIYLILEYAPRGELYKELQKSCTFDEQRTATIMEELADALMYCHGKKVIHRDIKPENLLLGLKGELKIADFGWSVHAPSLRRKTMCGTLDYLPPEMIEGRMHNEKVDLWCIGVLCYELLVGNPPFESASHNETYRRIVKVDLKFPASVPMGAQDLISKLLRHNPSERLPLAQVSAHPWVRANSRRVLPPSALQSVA
Chain of JNK3 (P53779 whole entry): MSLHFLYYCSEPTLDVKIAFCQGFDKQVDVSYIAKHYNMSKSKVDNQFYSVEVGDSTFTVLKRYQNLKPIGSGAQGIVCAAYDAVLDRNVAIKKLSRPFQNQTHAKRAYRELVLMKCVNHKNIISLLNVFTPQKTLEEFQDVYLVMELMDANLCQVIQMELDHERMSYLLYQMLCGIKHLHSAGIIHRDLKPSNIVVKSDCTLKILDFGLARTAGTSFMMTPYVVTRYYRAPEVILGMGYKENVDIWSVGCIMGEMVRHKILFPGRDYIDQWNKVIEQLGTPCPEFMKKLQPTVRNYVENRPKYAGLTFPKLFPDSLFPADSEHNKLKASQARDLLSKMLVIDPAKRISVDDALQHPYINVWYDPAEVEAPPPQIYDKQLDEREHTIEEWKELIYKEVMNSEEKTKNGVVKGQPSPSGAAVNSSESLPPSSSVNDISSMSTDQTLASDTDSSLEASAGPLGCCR

SMILES: O=C1CCC(N2C(=O)c3cccc(NCCCCCCCCNC(=O)N4CC[C@H](NC5=Nc6cc(F)ccc6N(CC(F)F)c6ccc(Cl)cc65)C4)c3C2=O)C(=O)N1 (stereo partly drawn) [BJG-05-039, (3S)-3-((2-Chloro-5-(2,2-difluoroethyl)-8-fluoro-5H-dibenzo[b,e][1,4]diazepin-11-yl)amino)-N-(8-((2-(2,6-dioxopiperidin-3-yl)-1,3-dioxoisoindolin-4-yl)amino)octyl)pyrrolidine-1-carboxamide]
- remaining binding at 10 µM (RIPK4): 98%
- remaining binding at 10 µM (JNK3): 88%
- remaining binding at 10 µM (NEK11): 100%
- remaining binding at 10 µM (CSK): 74%
- remaining binding at 10 µM (PIK3CD): 100%
- remaining binding at 10 µM (EGFR(T790M)): 97%
- Phosphorylation of MEK S298 (MEK1 at S298): inhibited phosphorylation of MEK S298
- remaining binding at 10 µM (TAOK1): 95%
- remaining binding at 10 µM (ERBB3): 59%
- Percent Control (FLT3(ITD)): 87
- remaining binding at 10 µM (AURKB): 93%
- remaining binding at 10 µM (FES): 86%
- remaining binding at 10 µM (CDK4-cyclinD3): 100%
- remaining binding at 10 µM (PAK1): 20%
- remaining binding at 10 µM (EPHA1): 98%
- remaining binding at 10 µM (PRKG2): 100%
- remaining binding at 10 µM (PIK3CA(E545A)): 100%
- remaining binding at 10 µM (CSNK1D): 60%
- remaining binding at 10 µM [1]: 91%
- remaining binding at 10 µM [2]: 100%
- remaining binding at 10 µM (CDKL5): 100%
- remaining binding at 10 µM (CDK8): 80%
- remaining binding at 10 µM (HIPK4): 67%
- remaining binding at 10 µM (p38-gamma): 99%
- Phosphorylation of ERK (ERK): inhibiting phosphorylation of ERK
- remaining binding at 10 µM [3]: 90%

Reference: patent publication US20250312462A1, “PAK1 DEGRADERS AND METHODS OF USE THEREOF” (INSTITUTE FOR CANCER RESEARCH D/B/A THE RESEARCH INSTITUTE …, priority 2022, published 2025)
